In patent publication US8609700B2, “Pyridine compounds for controlling invertebrate pests I” (BASF SE, priority 2010, dated 2013):

Legend:
Format in all cases: in vivo
[1] = tested on: Silverleaf Whitefly (Bemisia argentifolii, Adult); test: Silverleaf whitefly, cotton plants sprayed; conditions: 300 ppm, 3 days after treatment
Procedure: II.8 Silverleaf Whitefly (Bemisia argentifolii, Adult)
(§1) The active compounds were formulated in cyclohexanone as a 10,0000 ppm solution supplied in 1.3 ml ABgene® tubes. These tubes were inserted into an automated electrostatic sprayer equipped with an atomizing nozzle and they served as stock solutions for which lower dilutions were made in 50% acetone:50% water (vol/vol). A nonionic surfactant (Kinetic®) was included in the solution at a volume of 0.01% (vol/vol).
Cotton plants at the cotyledon stage (one plant per pot) were sprayed by an automated electrostatic plant sprayer equipped with an atomizing spray nozzle. The plants were dried in the sprayer fume hood and then removed from the sprayer. Each pot was placed into a plastic cup and 10 to 12 whitefly adults (approximately 3-5 days old) were introduced. The insects were collected using an aspirator and 0.6 cm, nontoxic Tygon® tubing (R-3603) connected to a barrier pipette tip. The tip, containing the collected insects, was then gently inserted into the soil containing the treated plant, allowing insects to crawl out of the tip to reach the foliage for feeding. Cups were covered with a reusable screened lid (150-micron mesh polyester screen PeCap from Tetko, Inc.). […] Mortality was assessed 3 days after treatment, compared to untreated control plants.

[2] = tested on: Boll Weevil (Anthonomus grandis); test: Boll weevil, insect diet in 24-well-microtiter plates; conditions: 120 h, test solution 2500 mg/L, sprayed onto insect diet, 5 days, read-out: mortality (egg and larval)
Procedure: II.5 Boll Weevil (Anthonomus grandis)
The compounds were formulated in 75:25 (vol/vol) water:DMSO.
For evaluating control of boll weevil (Anthonomus grandis) the test unit consisted of 24-well-microtiter plates containing an insect diet and 20-30 A. grandis eggs. Different concentrations of formulated compounds were sprayed onto the insect diet at 20 μl, using a custom built micro atomizer, at two replications. After application, the microtiter plates were incubated at 23±1° C. and 50±5% relative humidity for 5 days. Egg and larval mortality was then visually assessed.

[3] = tested on: Brown Planthopper (Nilaparvata lugens); test: Brown planthopper, rice seedlings sprayed; conditions: 500 ppm, after 72 hours
Procedure: II.7 Activity Against Brown Planthopper (Nilaparvata lugens)
The active compounds were formulated as a 50:50 (vol/vol) acetone:water solution. Surfactant (Alkamuls EL 620) was added at the rate of 0.1% (vol/vol).
Rice seedlings were cleaned and washed 24 h before spraying. Potted rice seedlings were sprayed with 5 ml test solution, air dried, placed in cages and inoculated with 10 adults. Treated rice plants were kept at 28-29° C. and relative humidity of 50-60%. Percent mortality was recorded after 72 hours.

[4] = tested on: Cotton Aphid (Aphis gossypii, Mixed Life Stages); test: Cotton aphid, method b) (electrostatic sprayer); conditions: 300 ppm; infested cotton plants sprayed; after 5 days
Procedure: II.1 Cotton Aphid (Aphis gossypii, Mixed Life Stages)
as §1, with “sur25 factant” for “surfactant”
Cotton plants at the cotyledon stage were infested with aphids prior to treatment by placing a heavily infested leaf from the main aphid colony on top of each cotyledon. Aphids were allowed to transfer overnight to accomplish an infestation of 80-100 aphids per plant and the host leaf was removed. The infested plants were then sprayed by an automated electrostatic plant sprayer equipped with an atomizing spray nozzle. The plants were dried in the sprayer fume hood, removed from the sprayer, and then maintained in a growth room under fluorescent lighting in a 24-hr photoperiod at 25° C. and 20-40% relative humidity. Aphid mortality on the treated plants, relative to mortality on untreated control plants, was determined after 5 days.

Compound: O=C(Nc1cccnc1)c1sccc1C(F)(F)F [Compound 7]
- mortality in comparison with untreated controls [1]: at least 75%

Compound: CN(C(=O)c1cc(Cl)sc1Cl)c1cccnc1 [Compound 28, 2,5-Dichloro-thiophene-3-carboxylic acid methyl-pyridin-3-yl-amide]
- mortality at 2500 µg/mL [2]: ≥ 50%

Compound: CN(C(=O)c1cccn1C)c1cccnc1 [Compound 14]
- mortality in comparison with untreated controls [3]: at least 50%

Compound: O=C(Nc1cccnc1)c1cscc1C(F)(F)F [Compound 26]
- mortality in comparison with untreated controls [4]: at least 75%
